Data taken from paper PMC4839570, “Novel Anthra[1,2-c][1,2,5]Thiadiazole-6,11-Diones as Promising Anticancer Lead Compounds: Biological Evaluation, Characterization & Molecular Targets Determination” (PLoS ONE, 2016).
Read-outs that look alike come from different tables or passages of the source.

Columns and labels:
EKVX = assay: NCI-60 cytotoxicity screen; type: cell-based
OVCAR-8 = assay: NCI-60 cytotoxicity screen; type: cell-based
NCI-H460 = assay: JFCR-39 cytotoxicity screen; type: cell-based
DU-145 = assay: NCI-60 cytotoxicity screen; type: cell-based
KM-12 = assay: JFCR-39 cytotoxicity screen; type: cell-based
SK-OV-3 [1] = assay: JFCR-39 cytotoxicity screen; type: cell-based
RXF 393 = assay: NCI-60 cytotoxicity screen; type: cell-based
MKN74 = assay: JFCR-39 cytotoxicity screen; type: cell-based
PC-3 = assay: JFCR-39 cytotoxicity screen; type: cell-based
MALME-3M = assay: NCI-60 cytotoxicity screen; type: cell-based
OVCAR-4 = assay: NCI-60 cytotoxicity screen; type: cell-based
SNB-78 = assay: JFCR-39 cytotoxicity screen; type: cell-based
M14 = assay: NCI-60 cytotoxicity screen; type: cell-based
[2] = tested on: JFCR 39 human cancer cell lines; assay: JFCR-39 screen, means, ranges and selectivity over panels; type: cell-based; conditions: for GI50: Homo sapiens
Protocol: Both NSC745885 and NSC757963 satisfied the pre-determined threshold inhibition criteria of the NCI-60 One-Dose Screening, so they were tested against the panels of 60 cancer cell lines of NCI (NCI-60) and 39 cancer cell lines of JFCR (JFCR-39), each cell line was tested at five small doses of our compounds. Results are expressed as the 50% growth inhibition concentration (GI50), the 50% lethal concentration (LC50) and the total growth inhibition (TGI), compared to the values of untreated control cells.
To characterize the selectivity of NSC745885 and NSC757963 further among the different types of cancer, we determined their selectivity ratios towards each cell line subpanel used in the cytotoxicity experiments. […] The promising activity of this compound is evident from the small mean GI50 values. […] The strongest activity was towards the leukemia subpanel and the least one was towards the colon cancer subpanel. […] The strongest activity was towards the melanoma subpanel and the least one was towards the colon cancer subpanel.
All cell lines were published before.

NCI-H226 = assay: NCI-60 cytotoxicity screen; type: cell-based
COLO 205 = assay: NCI-60 cytotoxicity screen; type: cell-based
SK-OV-3 [3] = assay: NCI-60 cytotoxicity screen; type: cell-based
UACC-257 = assay: NCI-60 cytotoxicity screen; type: cell-based
SNB-75 = assay: JFCR-39 cytotoxicity screen; type: cell-based
HT-29 = assay: JFCR-39 cytotoxicity screen; type: cell-based
SW-620 = assay: NCI-60 cytotoxicity screen; type: cell-based
OVCAR-3 = assay: cells; conditions: Homo sapiens, OVCAR-3, read-out: mean log10 of the GI50 values (converted)
K-562 = assay: NCI-60 cytotoxicity screen; type: cell-based
SF-295 = assay: JFCR-39 cytotoxicity screen; type: cell-based
[4] = Homo sapiens, Fig 7, read-out: mean log10 of the GI50 values (converted)
[5] = Homo sapiens, five-dose, read-out: GI50
[6] = Homo sapiens, five-dose, read-out: LC50 (the source's name)
[7] = Homo sapiens, read-out: LC50 (the source's name)

O=C1c2ccccc2C(=O)c2c1ccc1nsnc21 [NSC745885, anthra[1,2-c][1,2,5]thiadiazole-6,11-dione] was tested, and the GI50 (EKVX; [4]) was 1.86 µM, the GI50 (EKVX; [5]) was 1.55 µM and the CC50 (EKVX; [6]) was 7.66 µM. The TGI (EKVX; five-dose) was 3.45 µM, the GI50 (OVCAR-8; [4]) was 1.2 µM and the GI50 (OVCAR-8; [5]) was 1.66 µM. It also gave a CC50 (OVCAR-8; [6]) of 59.8 µM, a TGI (OVCAR-8; five-dose) of 4.68 µM and a TGI (NCI-H460) of 13.0 µM. The GI50 (NCI-H460; Homo sapiens) was 3.4 µM, the CC50 (NCI-H460; [7]) was 67 µM and the GI50 (DU-145; [4]) was 3.55 µM. The GI50 (DU-145; [5]) was 1.67 µM, the CC50 (DU-145; [6]) was 6.27 µM and the TGI (DU-145; five-dose) was 3.24 µM. It also gave a TGI (KM-12) of 5.4 µM, a GI50 (KM-12; Homo sapiens, KM12) of 2.3 µM and a CC50 (KM-12; Homo sapiens, KM12, read-out: LC50 (the source's name)) of 25 µM. For the same molecule, the TGI (SK-OV-3 [1]) was 8.3 µM, the GI50 (SK-OV-3 [1]; Homo sapiens) was 2.7 µM and the CC50 (SK-OV-3 [1]; [7]) was 29 µM. It also gave a GI50 (RXF 393; Homo sapiens, RXF393, Fig 7, read-out: mean log10 of the GI50 values (converted)) of 1.74 µM, a GI50 (RXF 393; [5]) of 1.75 µM and a CC50 (RXF 393; [6]) of 14.6 µM. It also gave a TGI (RXF 393; five-dose) of 4.40 µM, a TGI (MKN74) of 4.7 µM and a GI50 (MKN74; Homo sapiens, MKN-74) of 1.8 µM. It also gave a CC50 (MKN74; Homo sapiens, MKN-74, read-out: LC50 (the source's name)) of over 100 µM, a TGI (PC-3) of 2.8 µM and a GI50 (PC-3; Homo sapiens) of 1.3 µM. It also gave a CC50 (PC-3; [7]) of 6 µM, a GI50 (MALME-3M; [4]) of 2 µM and a GI50 (MALME-3M; [5]) of 1.66 µM. It also gave a CC50 (MALME-3M; [6]) of 5.96 µM, a TGI (MALME-3M; five-dose) of 3.15 µM and a GI50 (OVCAR-4; [4]) of 0.575 µM. For the same molecule, the GI50 (OVCAR-4; [5]) was 0.65 µM, the CC50 (OVCAR-4; [6]) was 5.57 µM and the inhibition at 10 µM (OVCAR-4; Homo sapiens, single dose 10 μM, read-out: growth inhibition) was 94.4%. It also gave a TGI (OVCAR-4; five-dose) of 2.17 µM, a TGI (SNB-78) of 3.4 µM and a GI50 (SNB-78; Homo sapiens) of 1.7 µM. It also gave a CC50 (SNB-78; [7]) of 6.9 µM, a GI50 (M14; [4]) of 2.29 µM and a GI50 (M14; [5]) of 2.15 µM. The CC50 (M14; [6]) was over 100 µM, the TGI (M14; five-dose) was 4.85 µM and the “selectivity ratios of the JFCR subpanels (for NSC745885 except melanoma)” value [2] was “less than 3”. It also gave a GI50 ([2]; JFCR Breast Cancer, read-out: Mean GI50 of subpanel) of 1.66 µM, a GI50 ([2]; JFCR CNS Cancer, read-out: Mean GI50 of subpanel) of 1.87 µM and a GI50 ([2]; JFCR Colon Cancer, read-out: Mean GI50 of subpanel) of 5.36 µM. The GI50 ([2]; JFCR Lung Cancer, read-out: Mean GI50 of subpanel) was 4.13 µM, the GI50 ([2]; JFCR Melanoma, read-out: Mean GI50 of subpanel) was 0.86 µM and the GI50 ([2]; JFCR Ovarian Cancer, read-out: Mean GI50 of subpanel) was 1.63 µM. The GI50 ([2]; JFCR Prostate Cancer, read-out: Mean GI50 of subpanel) was 1.65 µM, the GI50 ([2]; JFCR Renal Cancer, read-out: Mean GI50 of subpanel) was 2.1 µM and the GI50 ([2]; JFCR Stomach Cancer, read-out: Mean GI50 of subpanel) was 1.71 µM. For the same molecule, the GI50 ([2]; all JFCR subpanels, read-out: mean GI50 values of the JFCR subpanels, range) was 0.86 to 5.36 µM, the GI50 ([2]; equivalent to MG-MID, read-out: Mean GI50 of all JFCR-39 cell line panels) was 2.62 µM and the GI50 ([2]; five-dose, read-out: JFCR-39 GI50 values, range over cell lines) was 0.47 to 19 µM. For the same molecule, the Selectivity ratio ([2]; JFCR Breast Cancer) was 1.58, the Selectivity ratio ([2]; JFCR CNS Cancer) was 1.4 and the Selectivity ratio ([2]; JFCR Colon Cancer) was 0.49. For the same molecule, the Selectivity ratio ([2]; JFCR Lung Cancer) was 0.63, the Selectivity ratio ([2]; JFCR Melanoma) was 3.04 and the Selectivity ratio ([2]; JFCR Ovarian Cancer) was 1.6. It also gave a Selectivity ratio ([2]; JFCR Prostate Cancer) of 1.59, a Selectivity ratio ([2]; JFCR Renal Cancer) of 1.25 and a Selectivity ratio ([2]; JFCR Stomach Cancer) of 1.53. For the same molecule, the GI50 (NCI-H226; [4]) was 8.32 µM, the LC50 (concentration killing 50% of cells) (NCI-H226; Homo sapiens, five-dose) was 63.7 µM and the GI50 (NCI-H226; [5]) was 4.48 µM. For the same molecule, the TGI (NCI-H226; five-dose) was 21.6 µM, the GI50 (COLO 205; Homo sapiens, COLO205, Fig 7, read-out: mean log10 of the GI50 values (converted)) was 5.13 µM and the GI50 (COLO 205; [5]) was 13.4 µM. The CC50 (COLO 205; [6]) was 62.4 µM, the TGI (COLO 205; five-dose) was 28.9 µM and the GI50 (SK-OV-3 [3]; [4]) was 4.17 µM. For the same molecule, the GI50 (SK-OV-3 [3]; [5]) was 7.71 µM, the CC50 (SK-OV-3 [3]; [6]) was 53.4 µM and the TGI (SK-OV-3 [3]; five-dose) was 22.5 µM. For the same molecule, the GI50 (UACC-257; [4]) was 1.62 µM, the GI50 (UACC-257; [5]) was 1.74 µM and the CC50 (UACC-257; [6]) was 7.09 µM. It also gave a TGI (UACC-257; five-dose) of 3.51 µM, a TGI (SNB-75) of 3.9 µM and a GI50 (SNB-75; Homo sapiens) of 2.2 µM. The CC50 (SNB-75; [7]) was 7 µM, the TGI (HT-29) was 39.0 µM and the GI50 (HT-29; Homo sapiens) was 19 µM. The CC50 (HT-29; [7]) was 81 µM, the GI50 (SW-620; [4]) was 3.89 µM and the GI50 (SW-620; [5]) was 1.79 µM. For the same molecule, the CC50 (SW-620; [6]) was 6.84 µM, the TGI (SW-620; five-dose) was 3.50 µM and the GI50 (OVCAR-3) was 1.35 µM. It also gave a GI50 (K-562; Homo sapiens, K562, Fig 7, read-out: mean log10 of the GI50 values (converted)) of 2.51 µM, a GI50 (K-562; Homo sapiens, K562, five-dose, read-out: GI50) of 1.92 µM and a CC50 (K-562; Homo sapiens, K562, five-dose, read-out: LC50 (the source's name)) of 41.2 µM. It also gave a TGI (K-562; five-dose) of 15.9 µM, a TGI (SF-295) of 3.3 µM and a GI50 (SF-295; Homo sapiens) of 1.8 µM. It also gave a CC50 (SF-295; [7]) of 5.9 µM.
